Measurements as given in patent publication US5304687A, “Morpholinyl derivatives of doxorubicin and process for their preparation” (priority 1989, dated 1994).
≈ marks a conversion by molar mass, not a printed value. Like-named read-outs stand apart in the source and are kept apart here.

Legend:
[1] = system: LoVo; test: Colony assay test against LoVo cells in vitro (treatment for 4 hrs); assay type: cell-based; settings: Homo sapiens, read-out: IC50 (concentration inhibiting 50% of colony growth), LoVo
From the text: The compounds have been tested in several experimental system in order to ascertain their cytotoxicity and antitumor activity in experimental animals in comparison with parent Doxorubicin. The new anthracyclines result more cytotoxic than the parent drug on LoVo and LoVo Doxorubicin-resistant cell line (LoVo/Dx), Table 1, and are active "in vivo" against doxorubicin-resistant cell lines.
(§1) Colony assay test against LoVo and LoVo/Dx resistant cells
(§2) "in vitro" (treatment for 4 hrs)
(§3) ^a IC50 = concentration inhibiting 50% of colony growth

[2] = system: LoVo/Dx resistant cells; test: cells; assay type: cell-based; settings: for IC50: read-out: IC50 (concentration inhibiting 50% of colony growth), LoVo/Dx; for R.I. = Resistance Index = (IC50 LoVo/Dx)/(IC50 LoVo): LoVo/Dx vs LoVo
From the text: as §1, §2, §3
^b R.I. = Resistance Index = (IC50 LoVo/Dx)/(IC50 LoVo)

[3] = in vivo; settings: mouse, in vivo, iv
Protocol: (§4) The primary screening "in vivo" was carried out in BDF1 mice bearing P388 Doxorubicin-resistant Johnson's leukemia (P388/Dx) (10^2 cell/mouse). The drugs were administered iv on day 1 after tumor inoculation.
(§5) ^c O.D. = Optimal Dose: maximally tollerated dose.
(§6) ^d T/C % = Median survival time of treated mice over median survival
(§7) time of controls × 100.

[4] = system: Doxorubicin-resistant P388 Johnson's Leukemia (P388/Dx); test: in vivo; settings: BDF1 mice bearing P388/Dx Johnson (10^2 cell/mouse), iv on day 1, at O.D.
Protocol: as §4, §5, §6, §7

[5] = system: P388 Leukemia (Schabel); test: Effect on sensitive P388 leukemia (Schabel) in vitro (treatment 1 hr); assay type: cell-based; settings: Mus musculus, read-out: IC50 (concentration inhibiting 50% of cellular survival), P388
From the text: (§8) Effect of A4 on sensitive and Doxorubicin-resistant P388
(§9) Leukemia (Schabel) "in vitro" (treatment 1 hr).
(§10) ^c IC50 = concentration inhibiting 50% of cellular survival.

[6] = system: Doxorubicin-resistant P388 Leukemia (Schabel) (P388/Dx); test: Effect on Doxorubicin-resistant P388 leukemia (Schabel) in vitro (treatment 1 hr); assay type: cell-based; settings: read-out: IC50 (concentration inhibiting 50% of cellular survival), P388/Dx
From the text: as §8, §9, §10

[7] = in vivo; settings: mouse, in vivo, iv; remark: listed apart in the source
From the text: as §5, §6, §7

[8] = system: Doxorubicin-resistant P38B Schabel's Leukemia; test: in vivo; settings: BDF1 mice, P388/Dx Schabel (10^2 cell/mouse), iv on day 1, at O.D.
From the text: as §5, §6, §7

[9] = Effect on murine mammary carcinoma, iv and oral route; assay type: in vivo; settings: mouse, in vivo, read-out: O.D. = Optimal Dose: maximally tollerated dose
From the text: as §5
(§11) Effect of A4 on murine mammary carcinoma.
(§12) ^f iv q4dx4 = treatment iv every four days for four times
(§13) ^g po q4dx4 = oral treatment every four days for four times

[10] = system: murine mammary carcinoma; test: as above; assay type: in vivo; settings: for Tumor Inhibition %: at O.D.
From the text: as §5, §11, §12, §13

[11] = Effect on mammary human carcinoma (MX1), iv and oral route; assay type: in vivo; settings: in vivo, read-out: O.D. = Optimal Dose: maximally tollerated dose
From the text: as §5
(§14) Effect of A4 on mammary human carcinoma (MX1).
(§15) ^h iv q7dx3 = treatment iv every seven days for three times
(§16) ^i po q7dx3 = oral treatment every seven days for three times

[12] = system: mammary human carcinoma (MX1); test: as above; assay type: in vivo; settings: at O.D.
From the text: as §5, §14, §15, §16

[13] = iv q4dx4 (iv every four days for four times)
[14] = po q4dx4 (oral every four days for four times)
[15] = iv q7dx3 (iv every seven days for three times)
[16] = po q7dx3 (oral every seven days for three times)

Row | Structure (SMILES) | IC50 ([1]; 4 h) | IC50 ([2]; LoVo/DX, 4 h) | R.I. = Resistance Index = (IC50 LoVo/Dx)/(IC50 LoVo) ([2]; treatment for 4 hrs) | MTD [3] | T/C % = median survival time of treated mice over median survival time of controls × 100 [4] | T/C % = median survival time of treated mice over median survival time of controls × 100 [8] | Tumor Inhibition % [10, 13] | MTD [11, 15] | Tumor Inhibition % [12, 15] | further results
1 | COc1cccc2c1C(=O)c1c(O)c3c(c(O)c1C2=O)C[C@@](O)(C(=O)CO)C[C@@H]3O[C@H]1C[C@H](N2CCO[C@H](OC)C2)[C@H](O)[C@H](C)O1 [Compound A4, 3'-deamino-3'-(2"(S)-methoxy-4"-morpholinyl)-doxorubicin] | 0.0087 µg/mL (≈ 0.0135 µM) | 0.0317 µg/mL (≈ 0.0493 µM) | 3.6 | 0.09 mg/kg | 250% | 153% | 94% | 0.05 mg/kg | 98% | IC50 ([5]; P388, 1 h): 0.0076 µg/mL (≈ 0.0118 µM); IC50 ([6]; P388/DX, 1 h): 0.0243 µg/mL (≈ 0.0378 µM); MTD [7]: 0.09 mg/kg; MTD [9, 13]: 0.065 mg/kg; MTD [9, 14]: 0.1 mg/kg; Tumor Inhibition % [10, 14]: 97%; MTD [11, 16]: 0.13 mg/kg; Tumor Inhibition % [12, 16]: 99%
2 | COc1cccc2c1C(=O)c1c(O)c3c(c(O)c1C2=O)C[C@@](O)(C(=O)CO)C[C@@H]3O[C@H]1C[C@H](N)[C@H](O)[C@H](C)O1 [Doxorubicin, doxorubicin] |  |  | 52.6 |  | 86% | 100% | 99% | 6 mg/kg | 72% | IC50 ([1]; in vitro, treatment for 4 hrs): 0.0488 µg/mL (≈ 0.0898 µM); IC50 ([2]; LoVo/Dx, in vitro, treatment for 4 hrs): 2.55 µg/mL (≈ 4.7 µM); IC50 ([5]; sensitive P388 (Schabel), in vitro, treatment 1 hr): 0.0527 µg/mL (≈ 0.097 µM); IC50 ([6]; P388/Dx (Schabel), in vitro, treatment 1 hr): 4 µg/mL (≈ 7.36 µM); O.D. = Optimal Dose: maximally tollerated dose [10, 13]: 5.85 mg/kg
3 | COc1cccc2c1C(=O)c1c(O)c3c(c(O)c1C2=O)C[C@@](O)(C(=O)CO)C[C@@H]3O[C@H]1C[C@H](N2CCO[C@@H](OC)C2)[C@H](O)[C@H](C)O1 [Compound A5, 3'-deamino-3'-(2"(R)-methoxy-4"-morpholinyl)-doxorubicin] | 0.0065 µg/mL (≈ 0.0101 µM) | 0.0401 µg/mL (≈ 0.0623 µM) | 6.1 | 0.13 mg/kg | 244% |  |  |  |  | 
